Reference: ChEMBL document CHEMBL5325411, “Design, synthesis and biological evaluation of novel phenylfuran-bisamide derivatives as P-glycoprotein inhibitors against multidrug resistance in MCF-7/ADR cell” (Eur J Med Chem, 2023)
The source made the active and inactive calls. The calls are words filed in the database; no cut-off is given here.

What was measured:
NCI/ADR-RES [1] = assay: Cytotoxicity against DOX-resistant human MCF7/ADR cells assessed as reversal fold of resistance by measuring ratio of doxorubicin IC50 alone to doxorubicin IC50 in presence of test compound incubated for 48 hrs by CCK8 assay; format: functional
MCF7 = assay: Cytotoxicity against human MCF7 cells assessed as cell growth inhibition at 5 uM incubated for 48 hrs by CCK8 assay relative to control; format: functional
NCI/ADR-RES [2] = assay: Cytotoxicity against DOX-resistant human MCF7/ADR cells assessed as cell growth inhibition at 5 uM incubated for 48 hrs by CCK8 assay relative to control; format: functional
[3] = molecular target: ATP-dependent translocase ABCB1 (Homo sapiens, UniProt P08183); assay: Inhibition of P-gp in DOX-resistant human MCF7/ADR cells assessed as increase in intracellular Rh123 accumulation incubated for 4 hrs by flow cytometry; format: cell-based; conditions: mcf7adr, at 2.5 to 5 µM, dose 2.5-5 µM
NCI/ADR-RES [4] = assay: Downregulation of P-gp expression in DOX-resistant human MCF7/ADR cells at 0.5 to 5 uM incubated for 48 hrs by Western blot analysis; format: functional, cell-based; conditions: dose 0.5-5 µM

Chain of ATP-dependent translocase ABCB1 (P08183 whole entry): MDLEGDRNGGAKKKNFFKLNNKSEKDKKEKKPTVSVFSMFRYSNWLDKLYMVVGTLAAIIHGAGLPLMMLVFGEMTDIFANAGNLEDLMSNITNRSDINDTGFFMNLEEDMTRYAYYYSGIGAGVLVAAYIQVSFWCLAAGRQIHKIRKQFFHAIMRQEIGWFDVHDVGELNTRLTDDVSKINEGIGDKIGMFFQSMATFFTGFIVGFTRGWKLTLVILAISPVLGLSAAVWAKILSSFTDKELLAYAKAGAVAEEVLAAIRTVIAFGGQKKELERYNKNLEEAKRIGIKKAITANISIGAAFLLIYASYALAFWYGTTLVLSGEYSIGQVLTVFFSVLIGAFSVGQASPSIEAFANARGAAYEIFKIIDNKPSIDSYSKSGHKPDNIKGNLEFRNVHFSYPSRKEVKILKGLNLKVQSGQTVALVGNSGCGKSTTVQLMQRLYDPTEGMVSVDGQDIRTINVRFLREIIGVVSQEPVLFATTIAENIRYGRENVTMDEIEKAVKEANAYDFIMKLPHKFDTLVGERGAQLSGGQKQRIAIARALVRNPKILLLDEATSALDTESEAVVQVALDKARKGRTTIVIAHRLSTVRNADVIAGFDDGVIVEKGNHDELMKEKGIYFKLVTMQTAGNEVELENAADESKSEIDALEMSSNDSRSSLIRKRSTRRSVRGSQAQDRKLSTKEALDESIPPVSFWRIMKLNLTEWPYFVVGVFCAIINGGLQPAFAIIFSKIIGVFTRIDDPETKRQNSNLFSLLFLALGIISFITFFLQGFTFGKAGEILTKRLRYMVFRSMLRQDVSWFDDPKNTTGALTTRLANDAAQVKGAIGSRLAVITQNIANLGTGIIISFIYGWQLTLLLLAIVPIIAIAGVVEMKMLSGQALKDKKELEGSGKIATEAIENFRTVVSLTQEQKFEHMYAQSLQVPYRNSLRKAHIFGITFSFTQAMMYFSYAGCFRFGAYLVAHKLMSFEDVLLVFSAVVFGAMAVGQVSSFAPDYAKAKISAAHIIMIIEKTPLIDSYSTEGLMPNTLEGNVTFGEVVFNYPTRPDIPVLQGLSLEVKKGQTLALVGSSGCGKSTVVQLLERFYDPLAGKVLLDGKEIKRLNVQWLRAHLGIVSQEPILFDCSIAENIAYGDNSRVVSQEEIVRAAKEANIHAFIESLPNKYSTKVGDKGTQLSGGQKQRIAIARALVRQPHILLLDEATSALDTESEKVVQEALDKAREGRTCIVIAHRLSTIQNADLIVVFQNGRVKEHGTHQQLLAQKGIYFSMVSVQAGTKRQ

COc1cc2c(cc1OC)CN(C(=O)c1ccc(-c3ccc(NC(=O)c4cccc5ccccc45)cc3)o1)CC2
Ratio IC50 (NCI/ADR-RES [1]): 201.7
inhibition at 5 µM (MCF7): 34.8%
inhibition at 5 µM (NCI/ADR-RES [2]): 28.4%

COc1cc2c(cc1OC)CN(C(=O)c1ccc(-c3ccc(NC(=O)/C=C/c4ccccc4)cc3)o1)CC2
Ratio IC50 (NCI/ADR-RES [1]): 277.7
inhibition at 5 µM (MCF7): 14.5%
inhibition at 5 µM (NCI/ADR-RES [2]): 14.6%

COc1cc2c(cc1OC)CN(C(=O)c1ccc(-c3ccc(NC(=O)CC(C)(C)C)cc3)o1)CC2
Ratio IC50 (NCI/ADR-RES [1]): 52
inhibition at 5 µM (MCF7): 18.5%
inhibition at 5 µM (NCI/ADR-RES [2]): 12.6%

C/C=C/C(=O)Nc1ccc(-c2ccc(C(=O)N3CCc4cc(OC)c(OC)cc4C3)o2)cc1
Ratio IC50 (NCI/ADR-RES [1]): 130.1
inhibition at 5 µM (MCF7): 1.7%
inhibition at 5 µM (NCI/ADR-RES [2]): 8.8%

COc1cc2c(cc1OC)CN(C(=O)c1ccc(-c3ccc(NC(=O)c4cc5ccc(F)cc5[nH]4)cc3)o1)CC2
Ratio IC50 (NCI/ADR-RES [1]): 566.4
inhibition at 5 µM (MCF7): 28.1%
inhibition at 5 µM (NCI/ADR-RES [2]): 16.9%

C/C=C/C[C@@H](C)[C@@H](O)[C@H]1C(=O)N[C@@H](CC)C(=O)N(C)CC(=O)N(C)[C@@H](CC(C)C)C(=O)N[C@@H](C(C)C)C(=O)N(C)[C@@H](CC(C)C)C(=O)N[C@@H](C)C(=O)N[C@H](C)C(=O)N(C)[C@@H](CC(C)C)C(=O)N(C)[C@@H](CC(C)C)C(=O)N(C)[C@@H](C(C)C)C(=O)N1C [CYCLOSPORINE]
inhibition at 5 µM (NCI/ADR-RES [2]): 24.5%

COc1cc2c(cc1OC)CN(C(=O)c1ccc(-c3ccc(NC(=O)c4ccc5ccccc5c4)cc3)o1)CC2
Ratio IC50 (NCI/ADR-RES [1]): 451.1
inhibition at 5 µM (MCF7): 29.5%
inhibition at 5 µM (NCI/ADR-RES [2]): 23.8%

COc1ccc(-c2ccc(C(=O)N3CCc4cc(OC)c(OC)cc4C3)o2)cc1
Ratio IC50 (NCI/ADR-RES [1]): 39.4
inhibition at 5 µM (MCF7): 11.2%
inhibition at 5 µM (NCI/ADR-RES [2]): 25.7%

COc1cc2c(cc1OC)CN(C(=O)c1ccc(-c3ccc(NC(=O)c4cc5ccccc5o4)cc3)o1)CC2
inhibition at 5 µM (MCF7): 44.5%
inhibition at 5 µM (NCI/ADR-RES [2]): 63.7%

COc1cc2c(cc1OC)CN(C(=O)c1ccc(-c3ccc(NC(=O)c4cc5ccccc5[nH]4)cc3)o1)CC2
Ratio IC50 (NCI/ADR-RES [1]): 540.5
inhibition at 5 µM (MCF7): 13.3%
inhibition at 5 µM (NCI/ADR-RES [2]): 15.1%

COc1cc2c(cc1OC)CN(C(=O)c1ccc(-c3ccc(NC(=O)c4csc5ccccc45)cc3)o1)CC2
inhibition at 5 µM (MCF7): 37.3%
inhibition at 5 µM (NCI/ADR-RES [2]): 41.9%

COc1ccc2cc(C(=O)Nc3ccc(-c4ccc(C(=O)N5CCc6cc(OC)c(OC)cc6C5)o4)cc3)[nH]c2c1
Ratio IC50 (NCI/ADR-RES [1]): 437.1
inhibition at 5 µM (MCF7): 7.3%
inhibition at 5 µM (NCI/ADR-RES [2]): 12.4%

COc1cc2c(cc1OC)CN(C(=O)c1ccc(-c3ccc(NC(=O)C4CCC4)cc3)o1)CC2
Ratio IC50 (NCI/ADR-RES [1]): 82.1
inhibition at 5 µM (MCF7): 15.3%

COc1cc2c(cc1OC)CN(C(=O)c1ccc(-c3ccc(NC(=O)c4cc5ccc(Br)cc5[nH]4)cc3)o1)CC2
Ratio IC50 (NCI/ADR-RES [1]): 497.5
inhibition at 5 µM (MCF7): 7.4%
inhibition at 5 µM (NCI/ADR-RES [2]): 14.7%

COc1cccc2c1C(=O)c1c(O)c3c(c(O)c1C2=O)C[C@@](O)(C(=O)CO)C[C@@H]3O[C@H]1C[C@H](N)[C@H](O)[C@H](C)O1 [DOXORUBICIN]
Ratio IC50 (NCI/ADR-RES [1]): 1

CCCCC(=O)Nc1ccc(-c2ccc(C(=O)N3CCc4cc(OC)c(OC)cc4C3)o2)cc1
Ratio IC50 (NCI/ADR-RES [1]): 15.7
inhibition at 5 µM (MCF7): 17.6%
inhibition at 5 µM (NCI/ADR-RES [2]): 13.1%

COc1cc2c(cc1OC)CN(C(=O)c1ccc(-c3ccc(NC(=O)c4cc5cc(Br)ccc5[nH]4)cc3)o1)CC2
Ratio IC50 (NCI/ADR-RES [1]): 5473
inhibition at 5 µM (MCF7): 26.8%
inhibition at 5 µM (NCI/ADR-RES [2]): 19.5%

COc1cc2c(cc1OC)CN(C(=O)c1ccc(-c3ccc(NC(=O)C(C)(C)C)cc3)o1)CC2
Ratio IC50 (NCI/ADR-RES [1]): 78.4
inhibition at 5 µM (MCF7): 12.9%
inhibition at 5 µM (NCI/ADR-RES [2]): 23.3%

COc1ccc2[nH]c(C(=O)Nc3ccc(-c4ccc(C(=O)N5CCc6cc(OC)c(OC)cc6C5)o4)cc3)cc2c1
Ratio IC50 (NCI/ADR-RES [1]): 214.4
inhibition at 5 µM (MCF7): 19.5%
inhibition at 5 µM (NCI/ADR-RES [2]): 16.1%

COc1cc2c(cc1OC)CN(C(=O)c1ccc(-c3ccc(NC(=O)Cc4cccc5ccccc45)cc3)o1)CC2
Ratio IC50 (NCI/ADR-RES [1]): 168.8
inhibition at 5 µM (NCI/ADR-RES [2]): 26.3%

COc1cc2c(cc1OC)CN(C(=O)c1ccc(-c3ccc(NC(=O)c4cc5cc([N+](=O)[O-])ccc5[nH]4)cc3)o1)CC2
Ratio IC50 (NCI/ADR-RES [1]): 189.9
inhibition at 5 µM (MCF7): 5.1%
inhibition at 5 µM (NCI/ADR-RES [2]): 5.7%

COc1cc2c(cc1OC)CN(C(=O)c1ccc(-c3ccc(NC(=O)C4CCCC4)cc3)o1)CC2
Ratio IC50 (NCI/ADR-RES [1]): 18.6
inhibition at 5 µM (MCF7): 15.7%
inhibition at 5 µM (NCI/ADR-RES [2]): 19.8%

CCC(=O)Nc1ccc(-c2ccc(C(=O)N3CCc4cc(OC)c(OC)cc4C3)o2)cc1
Ratio IC50 (NCI/ADR-RES [1]): 33.3
inhibition at 5 µM (MCF7): 17.2%
inhibition at 5 µM (NCI/ADR-RES [2]): 23.2%

COc1cc2c(cc1OC)CN(C(=O)c1ccc(-c3ccc(NC(=O)c4cc5ccccc5s4)cc3)o1)CC2
inhibition at 5 µM (MCF7): 48.8%
inhibition at 5 µM (NCI/ADR-RES [2]): 46.8%

COc1ccc(CCN(C)CCCC(C#N)(c2ccc(OC)c(OC)c2)C(C)C)cc1OC (stereo not drawn)
inhibition at 5 µM (NCI/ADR-RES [2]): 12.2%

COc1cc2c(cc1OC)CN(C(=O)c1ccc(-c3ccc(NC(=O)C(C)C)cc3)o1)CC2
Ratio IC50 (NCI/ADR-RES [1]): 46.5
inhibition at 5 µM (MCF7): 19.1%
inhibition at 5 µM (NCI/ADR-RES [2]): 18.4%

COc1cc2c(cc1OC)CN(C(=O)c1ccc(-c3ccc(NC(=O)c4c[nH]c5ccccc45)cc3)o1)CC2
Ratio IC50 (NCI/ADR-RES [1]): 347
inhibition at 5 µM (MCF7): 16.1%
inhibition at 5 µM (NCI/ADR-RES [2]): 18.2%

COc1cc2c(cc1OC)CN(C(=O)c1ccc(-c3ccc(NC(=O)C4CC4)cc3)o1)CC2
Ratio IC50 (NCI/ADR-RES [1]): 57.2
inhibition at 5 µM (MCF7): 12.2%
inhibition at 5 µM (NCI/ADR-RES [2]): 10.9%

COc1cc2c(cc1OC)CN(C(=O)c1ccc(-c3ccc(NC(=O)c4cc5c(C)cccc5[nH]4)cc3)o1)CC2
Ratio IC50 (NCI/ADR-RES [1]): 88.3
inhibition at 5 µM (MCF7): 16.6%
inhibition at 5 µM (NCI/ADR-RES [2]): 15.1%

COc1cc2c(cc1OC)CN(CCc1ccc(NC(=O)c3cc(OC)c(OC)cc3NC(=O)c3cnc4ccccc4c3)cc1)CC2
Ratio IC50 (NCI/ADR-RES [1]): 319.3
inhibition at 5 µM (MCF7): 21.3%

COc1cc2c(cc1OC)CN(C(=O)c1ccc(-c3ccc(NC(=O)c4cc5cc(C)ccc5[nH]4)cc3)o1)CC2
Ratio IC50 (NCI/ADR-RES [1]): 116.9
inhibition at 5 µM (MCF7): 8.1%
inhibition at 5 µM (NCI/ADR-RES [2]): 10.1%

COc1cc2c(cc1OC)CN(C(=O)c1ccc(-c3ccc(NC(C)=O)cc3)o1)CC2
Ratio IC50 (NCI/ADR-RES [1]): 18.6
inhibition at 5 µM (MCF7): 11%
inhibition at 5 µM (NCI/ADR-RES [2]): 10.1%

COc1cc2c(cc1OC)CN(C(=O)c1ccc(-c3ccc(NC(=O)c4cc5cc(F)ccc5[nH]4)cc3)o1)CC2
Ratio IC50 (NCI/ADR-RES [1]): 1163
inhibition at 5 µM (MCF7): 12%
inhibition at 5 µM (NCI/ADR-RES [2]): 19.8%
inhibition (INH) [3]: Dose-Dependent Effect
Activity (NCI/ADR-RES [4]): inactive

COc1cc2c(cc1OC)CN(C(=O)c1ccc(-c3ccc(NC(=O)c4cc5cc(Cl)ccc5[nH]4)cc3)o1)CC2
Ratio IC50 (NCI/ADR-RES [1]): 613.3
inhibition at 5 µM (MCF7): 15.8%
inhibition at 5 µM (NCI/ADR-RES [2]): 14.4%

COc1cc2c(cc1OC)CN(C(=O)c1ccc(-c3ccc(NC(=O)c4cc5c(F)cc(F)cc5[nH]4)cc3)o1)CC2
Ratio IC50 (NCI/ADR-RES [1]): 600.2
inhibition at 5 µM (MCF7): 9.1%
inhibition at 5 µM (NCI/ADR-RES [2]): 14.7%

COc1cc2c(cc1OC)CN(C(=O)c1ccc(-c3ccc(NC(=O)c4cccc5[nH]ccc45)cc3)o1)CC2
Ratio IC50 (NCI/ADR-RES [1]): 220
inhibition at 5 µM (MCF7): 7.6%
inhibition at 5 µM (NCI/ADR-RES [2]): 9.2%
